{"source": "patent US9115093B2", "about": "“Substituted bicyclic dihydropyrimidinones and their use as inhibitors of neutrophil elastase activity” (Boehringer Ingelheim International GmbH, priority 2013, dated 2015)"}
{"biological_target": "T1, neutrophil elastase (Homo sapiens, UniProt P08246)", "T1 sequence (P08246 30-247 limits assumed)": "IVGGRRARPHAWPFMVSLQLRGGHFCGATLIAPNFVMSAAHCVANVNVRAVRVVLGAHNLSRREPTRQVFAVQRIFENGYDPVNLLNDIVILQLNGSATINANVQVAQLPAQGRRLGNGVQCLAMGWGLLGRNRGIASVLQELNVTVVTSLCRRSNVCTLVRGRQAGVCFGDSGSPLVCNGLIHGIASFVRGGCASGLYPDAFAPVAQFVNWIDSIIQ", "test": "Human Neutrophil Elastase Assay", "assay_type": "biochemical", "set-up": "purchased Calbiochem 324681", "conditions": "substrate MeOSuc-Ala-Ala-Pro-Val-AMC, pH 7.5, room temperature", "method": "Human Neutrophil Elastase Assay\nMaterials: Human neutrophil elastase was purchased from Calbiochem (Cat.No.: 324681) and the elastase substrate MeOSuc-Ala-Ala-Pro-Val-AMC from Bachem (Cat.No.: I-1270). All other materials were of the highest grade commercially available.\nThe following buffers were used: Compound buffer: 100 mM Tris, 500 mM NaCl, adjusted to pH 7.5; Assay buffer: 100 mM Tris, 500 mM NaCl, adjusted to pH 7.5, containing 0.01% BSA.\nAssay conditions: Test compounds were prediluted in DMSO and subsequently in compound buffer (5% DMSO final). 5 μL of these compound dilutions were mixed with 10 μl Neutrophil elastase (9 ng/ml in assay buffer) in a black 384 well OptiPlate (Perkin Elmer, Cat No.: 6007270) and incubated for 15 min at room temperature. Subsequently 10 μL substrate solution in assay buffer were added (250 nM final concentration) and the plates were incubated for 60 min at room temperature. After inactivation of the enzyme, fluorescence intensities were measured at 380 nm excitation and 460 nm emission wavelengths.\nEach plate contains wells with a high value control (DMSO+enzyme+substrate) and wells with a low value control (DMSO+inactivated enzyme+substrate). IC50 values were estimated using a sigmoidal concentration response curve with variable slope. Means of low values were taken as 0%, means of high values as 100%.", "units": {"IC50": "nM"}}
{"smiles": "CC1(C)CCC2=C(C1=O)C(c1ccc(C#N)cc1)NC(=O)N2c1cccc(C(F)(F)F)c1", "note": "(stereo not drawn) [Example 2, 4-(6,6-Dimethyl-2,5-dioxo-1-(3-(trifluoromethyl)phenyl)-1,2,3,4,5,6,7,8-octahydroquinazolin-4-yl)benzonitrile]", "IC50": 44.9}
{"smiles": "CC1(C)CC(=O)C2=C(C1)N(c1cccc(C(F)(F)F)c1)C(=O)NC2c1ccc(C#N)cc1", "note": "(stereo not drawn) [Example 3, 4-(7,7-Dimethyl-2,5-dioxo-1-(3-(trifluoromethyl)phenyl)-1,2,3,4,5,6,7,8-octahydroquinazolin-4-yl)benzonitrile]", "IC50": 68.3}
{"smiles": "N#Cc1ccc(C2NC(=O)N(c3cccc(C(F)(F)F)c3)C3=C2C(=O)CC2(CCOCC2)C3)cc1", "note": "(stereo not drawn) [Example 4, 4-(2′,5′-Dioxo-1′-(3-(trifluoromethyl)phenyl)-2,2′,3,3′,4′,5,5′,6,6′,8′-decahydro-1′H-spiro[pyran-4,7′-quinazoline]-4′-yl)benzonitrile]", "IC50": 110}
{"smiles": "N#Cc1ccc(C2NC(=O)N(c3cccc(C(F)(F)F)c3)C3=C2C(=O)CC(C(F)(F)F)C3)cc1", "note": "(stereo not drawn) [Example 5, 4-(2,5-Dioxo-7-(trifluoromethyl)-1-(3-(trifluoromethyl)phenyl)-1,2,3,4,5,6,7,8-octahydroquinazolin-4-yl)benzonitrile]", "IC50": 65.8}
{"smiles": "N#Cc1ccc(C2NC(=O)N(c3cccc(C(F)(F)F)c3)C3=C2C(=O)CC(c2ccccc2)C3)cc1", "note": "(stereo not drawn) [Example 6, 4-(2,5-dioxo-7-phenyl-1-(3-(trifluoromethyl)phenyl)-1,2,3,4,5,6,7,8-octahydroquinazolin-4-yl)benzonitrile]", "IC50": 47.6}
{"smiles": "N#Cc1ccc(C2NC(=O)N(c3cccc(C(F)(F)F)c3)C3=C2C(=O)CC(c2ccc(C(F)(F)F)cc2)C3)cc1", "note": "(stereo not drawn) [Example 7, 4-(2,5-Dioxo-1-(3-(trifluoromethyl)phenyl)-7-(4-(trifluoromethyl)phenyl)-1,2,3,4,5,6,7,8-octahydroquinazolin-4-yl)benzonitrile]", "IC50": 212}
{"smiles": "COc1cc(C2CC(=O)C3=C(C2)N(c2cccc(C(F)(F)F)c2)C(=O)NC3c2ccc(C#N)cc2)cc(OC)c1OC", "note": "(stereo not drawn) [Example 8, 4-(2,5-Dioxo-1-(3-(trifluoromethyl)phenyl)-7-(3,4,5-trimethoxyphenyl)-1,2,3,4,5,6,7,8-octahydroquinazolin-4-yl)benzonitrile]", "IC50": 26.3}
{"smiles": "N#Cc1ccc(C2NC(=O)N(c3cccc(C(F)(F)F)c3)C3=C2C(=O)CC(c2cccs2)C3)cc1", "note": "(stereo not drawn) [Example 9, 4-(2,5-Dioxo-7-(thiophen-2-yl)-1-(3-(trifluoromethyl)phenyl)-1,2,3,4,5,6,7,8-octahydroquinazolin-4-yl)benzonitrile]", "IC50": 41.7}
{"smiles": "N#Cc1ccc(C2NC(=O)N(c3cccc(C(F)(F)F)c3)C3=C2C(=O)CC(C(=O)O)C3)cc1", "note": "(stereo not drawn) [Example 10, 4-(4-Cyanophenyl)-2,5-dioxo-1-(3-(trifluoromethyl)phenyl)-1,2,3,4,5,6,7,8-octahydroquinazoline-7-carboxylic acid]", "IC50": 48.5}
{"smiles": "COC(=O)C1CC(=O)C2=C(C1)N(c1cccc(C(F)(F)F)c1)C(=O)NC2c1ccc(C#N)cc1", "note": "(stereo not drawn) [Example 11, Methyl 4-(4-Cyanophenyl)-2,5-dioxo-1-(3-(trifluoromethyl)phenyl)-1,2,3,4,5,6,7,8-octahydroquinazoline-7-carboxylate]", "IC50": 39.4}
{"smiles": "N#Cc1ccc(C2NC(=O)N(c3cccc(C(F)(F)F)c3)C3=C2C(=O)CC(C(N)=O)C3)cc1", "note": "(stereo not drawn) [Example 12, 4-(4-Cyanophenyl)-2,5-dioxo-1-(3-(trifluoromethyl)phenyl)-1,2,3,4,5,6,7,8-octahydroquinazoline-7-carboxamide]", "IC50": 43.4}
{"smiles": "N#Cc1ccc(C2NC(=O)N(c3cc(C(F)(F)F)ccn3)C3=C2C(=O)CCC3)cc1", "note": "(stereo not drawn) [Example 13, 4-(2,5-Dioxo-1-(4-(trifluoromethyl)pyridin-2-yl)-1,2,3,4,5,6,7,8-octahydroquinazolin-4-yl)benzonitrile]", "IC50": 110}
{"smiles": "N#Cc1ccc(C2NC(=O)N(c3ccnc(C(F)(F)F)c3)C3=C2C(=O)CCC3)cc1", "note": "(stereo not drawn) [Example 14, 4-(2,5-Dioxo-1-(2-(trifluoromethyl)pyridin-4-yl)-1,2,3,4,5,6,7,8-octahydroquinazolin-4-yl)benzonitrile]", "IC50": 70.3}
{"smiles": "N#Cc1ccc(C2NC(=O)N(c3cccc(C(F)(F)F)c3)C3=C2C(=O)CCC3)nc1", "note": "(stereo not drawn) [Example 15, 6-(2,5-Dioxo-1-(3-(trifluoromethyl)phenyl)-1,2,3,4,5,6,7,8-octahydroquinazolin-4-yl)-nicotinonitrile]", "IC50": 52.1}
{"smiles": "N#Cc1ccc(C2NC(=O)N(c3cccc(C(F)(F)F)c3)C3=C2C(=O)CCC3)cn1", "note": "(stereo not drawn) [Example 16, 5-(2,5-dioxo-1-(3-(trifluoromethyl)phenyl)-1,2,3,4,5,6,7,8-octahydroquinazolin-4-yl)-picolinonitrile]", "IC50": 54.1}
{"smiles": "N#Cc1ccc(C2NC(=O)N(c3cccc(C(F)F)c3)C3=C2C(=O)CCC3)cc1", "note": "(stereo not drawn) [Example 17, 4-(1-(3-(Difluoromethyl)phenyl)-2,5-dioxo-1,2,3,4,5,6,7,8-octahydroquinazolin-4-yl)-benzonitrile]", "IC50": 23.2}
{"smiles": "CCCCN1C(=O)N(c2cccc(C(F)(F)F)c2)C2=C(C(=O)CCC2)C1c1ccc(C#N)cc1", "note": "(stereo not drawn) [Example 21, 4-(3-Butyl-1-(3-(trifluoromethyl)phenyl)-2,5-dioxo-1,2,3,4,5,6,7,8-octahydroquinazolin-4-yl)benzonitrile]", "IC50": 19.4}
{"smiles": "COCCN1C(=O)N(c2cccc(C(F)(F)F)c2)C2=C(C(=O)CCC2)C1c1ccc(C#N)cc1", "note": "(stereo not drawn) [Example 22, 4-(1-(3-(Trifluoromethyl)phenyl)-3-(2-methoxyethyl)-2,5-dioxo-1,2,3,4,5,6,7,8-octahydroquinazolin-4-yl)benzonitrile]", "IC50": 8.7}
{"smiles": "N#Cc1ccc(C2C3=C(CCCC3=O)N(c3cccc(C(F)(F)F)c3)C(=O)N2CCCN2CCCC2)cc1", "note": "(stereo not drawn) [Example 23, 4-(1-(3-(Trifluoromethyl)phenyl)-2,5-dioxo-3-(3-(pyrrolidin-1-yl)propyl)-1,2,3,4,5,6,7,8-octahydroquinazolin-4-yl)benzonitrile]", "IC50": 10.7}
{"smiles": "COCCCN1C(=O)N(c2cccc(C(F)(F)F)c2)C2=C(C(=O)CCC2)C1c1ccc(C#N)cc1", "note": "(stereo not drawn) [Example 24, 4-(1-(3-(Trifluoromethyl)phenyl)-3-(3-methoxypropyl)-2,5-dioxo-1,2,3,4,5,6,7,8-octahydroquinazolin-4-yl)benzonitrile]", "IC50": 6.4}
{"smiles": "Cn1nccc1CN1C(=O)N(c2cccc(C(F)(F)F)c2)C2=C(C(=O)CCC2)C1c1ccc(C#N)cc1", "note": "(stereo not drawn) [Example 24.1]", "IC50": 6.6}
{"smiles": "Cn1cc(CN2C(=O)N(c3cccc(C(F)(F)F)c3)C3=C(C(=O)CCC3)C2c2ccc(C#N)cc2)cn1", "note": "(stereo not drawn) [Example 24.2]", "IC50": 9.8}
{"smiles": "Cn1ccc(CN2C(=O)N(c3cccc(C(F)(F)F)c3)C3=C(C(=O)CCC3)C2c2ccc(C#N)cc2)n1", "note": "(stereo not drawn) [Example 24.3]", "IC50": 11.1}
{"smiles": "N#Cc1ccc(C2C3=C(CCCC3=O)N(c3cccc(C(F)(F)F)c3)C(=O)N2CC2CCOC2)cc1", "note": "(stereo not drawn) [Example 25, 4-(1-(3-(Trifluoromethyl)phenyl)-2,5-dioxo-3-((tetrahydrofuran-3-yl)methyl)-1,2,3,4,5,6,7,8-octahydroquinazolin-4-yl)benzonitrile]", "IC50": 8.6}
{"smiles": "N#Cc1ccc(C2C3=C(CCCC3=O)N(c3cccc(C(F)(F)F)c3)C(=O)N2CC2CCOCC2)cc1", "note": "(stereo not drawn) [Example 26]", "IC50": 11.8}
{"smiles": "Cn1ccc(CN2C(=O)N(c3cccc(C(F)(F)F)c3)C3=C(C(=O)CCC3)C2c2ccc(C#N)cc2)cc1=O", "note": "(stereo not drawn) [Example 27, 4-(1-(3-(Trifluoromethyl)phenyl)-3-((1-methyl-2-oxo-1,2-dihydropyridin-4-yl)methyl)-2,5-dioxo-1,2,3,4,5,6,7,8-octahydroquinazolin-4-yl)benzonitrile]", "IC50": 10.8}
{"smiles": "COC(=O)c1ccc(CN2C(=O)N(c3cccc(C(F)(F)F)c3)C3=C(C(=O)CCC3)C2c2ccc(C#N)cc2)o1", "note": "(stereo not drawn) [Example 28, Methyl 5-((4-(4-Cyanophenyl)-2,5-dioxo-1-(3-(trifluoromethyl)phenyl)-1,2,5,6,7,8-hexahydroquinazolin-3(4H)-yl)methyl)furan-2-carboxylate]", "IC50": 29}
{"smiles": "N#Cc1ccc(C2C3=C(CCCC3=O)N(c3cccc(C(F)(F)F)c3)C(=O)N2Cc2ccc(C(=O)O)o2)cc1", "note": "(stereo not drawn) [Example 29, 5-((4-(4-Cyanophenyl)-2,5-dioxo-1-(3-(trifluoromethyl)phenyl)-1,2,5,6,7,8-hexahydroquinazolin-3(4H)-yl)methyl)furan-2-carboxylic acid]", "IC50": 13.7}
{"smiles": "CS(=O)(=O)CCN1C(=O)N(c2cccc(C(F)(F)F)c2)C2=C(C(=O)CCC2)C1c1ccc(C#N)cc1", "note": "(stereo not drawn) [Example 30, 4-(3-(2-(Methylsulfonyl)ethyl)-2,5-dioxo-1-(3-(trifluoromethyl)phenyl)-1,2,3,4,5,6,7,8-octahydroquinazolin-4-yl)benzonitrile]", "IC50": 4}
{"smiles": "N#Cc1ccc(C2C3=C(CCCC3=O)N(c3cccc(C(F)(F)F)c3)C(=O)N2CC(=O)O)cc1", "note": "(stereo not drawn) [Example 32, 2-(4-(4-Cyanophenyl)-2,5-dioxo-1-(3-(trifluoromethyl)phenyl)-1,2,5,6,7,8-hexahydroquinazolin-3(4H)-yl)acetic acid]", "IC50": 12}
